In general, kon refers to the second-order rate constant of association.

Structures can show the parent of a compound that is named as a salt.

This assay concerns the target Prothrombin (Homo sapiens, UniProt P00734). The experiment in a line: Inhibition of Thrombin. The following applies: read-out: kon (M-1-s-1).
In the case of `NC1CCC(CNC(=O)[C@@H]2CCCN2C(=O)CC(c2ccccc2)c2ccncc2)CC1` (stereo partly drawn) [(S)-1-(3-Phenyl-3-pyridin-4-yl-propionyl)-pyrrolidine-2-carboxylic acid (4-amino-cyclohexylmethyl)-amide; TFA], the kon was 1.55e+08 M⁻¹ s⁻¹.
`NC1CCC(CNC(=O)[C@@H]2CCCN2C(=O)CC(c2ccccc2)c2ccccn2)CC1` (stereo partly drawn) [(S)-1-(3-Phenyl-3-pyridin-2-yl-propionyl)-pyrrolidine-2-carboxylic acid (4-amino-cyclohexylmethyl)-amide; TFA]: the kon stood at 1.8e+08 M⁻¹ s⁻¹.
For the compound `NC1CCC(CNC(=O)[C@@H]2CCCN2C(=O)CC(C2CCCCC2)C2CCCCC2)CC1` (stereo partly drawn) [(S)-1-(3,3-Dicyclohexyl-propionyl)-pyrrolidine-2-carboxylic acid (4-amino-cyclohexylmethyl)-amide; hydrochloride], the kon was found to be 2.3e+08 M⁻¹ s⁻¹.
As for `NC1CCC(CNC(=O)[C@@H]2CCCN2C(=O)CC(c2ccccc2)c2ccccc2)CC1` (stereo partly drawn) [(S)-1-(3,3-Diphenyl-propionyl)-pyrrolidine-2-carboxylic acid (4-amino-cyclohexylmethyl)-amide; TFA], the association rate constant (kon) came to 2.1e+08 M⁻¹ s⁻¹.
`NC1CCC(CNC(=O)[C@@H]2CCCN2C(=O)CC2c3ccccc3C=Cc3ccccc32)CC1` (stereo partly drawn) [(S)-1-(2-5H-Dibenzo[a,d]cyclohepten-5-yl-acetyl)-pyrrolidine-2-carboxylic acid (4-amino-cyclohexylmethyl)-amide; hydrochloride]: the kon is 1.8e+08 M⁻¹ s⁻¹.
For the compound `NC1CCC(CNC(=O)[C@@H]2CCCN2C(=O)CC(c2cccnc2)c2ccc3c(c2)OCO3)CC1` (stereo partly drawn) [(S)-1-(3-Benzo[1,3]dioxol-5-yl-3-pyridin-3-yl-propionyl)-pyrrolidine-2-carboxylic acid (4-amino-cyclohexylmethyl)-amide; TFA], the on-rate (kon) is 2.51e+08 M⁻¹ s⁻¹.
Consider `NC1CCC(CNC(=O)[C@@H]2CCCN2C(=O)CC(c2ccccc2)c2cccnc2)CC1` (stereo partly drawn) [(S)-1-(3-Phenyl-3-pyridin-3-yl-propionyl)-pyrrolidine-2-carboxylic acid (4-amino-cyclohexylmethyl)-amide; TFA], for which the kon came to 2.1e+08 M⁻¹ s⁻¹.
